Experimental data taken from paper PMC7054317, “Mammalian ALKBH1 serves as an N^6-mA demethylase of unpairing DNA” (Cell Research, 2020).

Key:
[1] = target: T1, ALKBH1 in full length (mouse) (Mus musculus, UniProt P0CB42); experiment: isothermal titration calorimetry; format: binding
T1 construct: full length, residues 1-389, N-terminal His-tag retained, E. coli BL21(DE3), modified pRSFDuet-1
T1 sequence (P0CB42 1-389): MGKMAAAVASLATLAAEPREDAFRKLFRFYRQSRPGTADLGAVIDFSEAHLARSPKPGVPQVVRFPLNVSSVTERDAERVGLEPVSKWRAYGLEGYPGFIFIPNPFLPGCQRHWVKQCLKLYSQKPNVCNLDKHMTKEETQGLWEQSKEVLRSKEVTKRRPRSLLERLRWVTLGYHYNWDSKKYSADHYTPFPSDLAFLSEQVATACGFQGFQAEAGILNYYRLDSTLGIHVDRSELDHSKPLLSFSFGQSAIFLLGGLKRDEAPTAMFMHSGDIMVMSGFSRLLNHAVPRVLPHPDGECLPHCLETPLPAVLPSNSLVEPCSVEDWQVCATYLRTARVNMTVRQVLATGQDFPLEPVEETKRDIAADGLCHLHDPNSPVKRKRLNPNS

[2] = target: T2, ALKBH1_1–359 (mouse) (Mus musculus, UniProt P0CB42); experiment: isothermal titration calorimetry; format: binding
T2 construct: gene Alkbh1; C-terminally truncated, residues 1-359, His-tag removed with PreScission protease, E. coli BL21(DE3); residues 20-358 modelled in the crystal
T2 sequence (P0CB42 1-359): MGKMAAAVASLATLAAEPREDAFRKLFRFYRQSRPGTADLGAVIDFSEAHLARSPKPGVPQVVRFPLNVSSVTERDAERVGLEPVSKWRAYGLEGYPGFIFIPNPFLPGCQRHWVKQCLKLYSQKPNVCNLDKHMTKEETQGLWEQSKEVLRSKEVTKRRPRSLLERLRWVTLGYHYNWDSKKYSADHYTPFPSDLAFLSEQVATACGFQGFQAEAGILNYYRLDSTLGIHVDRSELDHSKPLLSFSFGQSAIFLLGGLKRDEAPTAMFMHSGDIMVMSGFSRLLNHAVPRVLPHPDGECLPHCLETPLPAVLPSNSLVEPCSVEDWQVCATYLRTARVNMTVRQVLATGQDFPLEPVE

With `O=C(O)CNC(=O)C(=O)O` [NOG] the Kd [1] was 1800 nM and the Kd [2] was 2500 nM.
